Measured values reported in ChEMBL document CHEMBL1201862, “PubChem BioAssay data set” (2004).
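A five-concentration, 48-hour dose response in 96-well plates underlies each endpoint, interpolated linearly between surrounding concentrations. GI50 marks 50% less growth.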 Active and inactive are the calls of the source. Cut-off read from the data, not from the text of the source: active = GI50 up to about 1.1 µM and inactive = higher.

Columns and labels:
Assay in all cases: NCI tumour cell line growth inhibition, 48 h
786-0 = tested on: 786-0
A498 = tested on: A498
A549 = tested on: A549
ACHN = tested on: ACHN
BT-549 = tested on: BT-549
CAKI-1 = tested on: CAKI-1
CCRF-CEM = tested on: CCRF-CEM
COLO 205 = tested on: COLO 205
DU-145 = tested on: DU-145
EKVX = tested on: EKVX
HCC 2998 = tested on: HCC 2998
HCT-116 = tested on: HCT-116
HCT-15 = tested on: HCT-15
HL-60 = tested on: HL-60
HOP-62 = tested on: HOP-62
HOP-92 = tested on: HOP-92
HT-29 = tested on: HT-29
Hs-578T = tested on: Hs-578T
IGROV-1 = tested on: IGROV-1
K562 = tested on: K562
KM12 = tested on: KM12
LOX IMVI = tested on: LOX IMVI
M14 = tested on: M14
MCF7 = tested on: MCF7
MDA-MB-231 = tested on: MDA-MB-231
MDA-MB-435 = tested on: MDA-MB-435
MOLT-4 = tested on: MOLT-4
Malme-3M = tested on: Malme-3M
NCI-H226 = tested on: NCI-H226
NCI-H23 = tested on: NCI-H23
NCI-H460 = tested on: NCI-H460
NCI-H522 = tested on: NCI-H522
NCI/ADR-RES = tested on: NCI/ADR-RES
OVCAR-3 = tested on: OVCAR-3
OVCAR-4 = tested on: OVCAR-4
OVCAR-5 = tested on: OVCAR-5
OVCAR-8 = tested on: OVCAR-8
PC-3 = tested on: PC-3
RPMI-8226 = tested on: RPMI-8226
RXF 393 = tested on: RXF 393
SF-268 = tested on: SF-268
SF-295 = tested on: SF-295
SF-539 = tested on: SF-539
SK-MEL-28 = tested on: SK-MEL-28
SK-MEL-5 = tested on: SK-MEL-5
SK-OV-3 = tested on: SK-OV-3
SN12C = tested on: SN12C
SNB-19 = tested on: SNB-19
SR = tested on: SR
SW-620 = tested on: SW-620
T47D = tested on: T47D
TK-10 = tested on: TK-10
U-251 = tested on: U-251
UACC-257 = tested on: UACC-257
UACC-62 = tested on: UACC-62
UO-31 = tested on: UO-31
SK-MEL-2 = tested on: SK-MEL-2
SNB-75 = tested on: SNB-75

Cc1cc(NCC2CC/C(=C\C=C\c3ccccc3)C2=O)no1 (stereo not given)
GI50 (786-0): > 100 µM (inactive) | GI50 (A498): 51.8 µM (inactive) | GI50 (A549): > 100 µM (inactive) | GI50 (ACHN): 93.8 µM (inactive) | GI50 (BT-549): > 100 µM (inactive) | GI50 (CAKI-1): > 100 µM (inactive) | GI50 (CCRF-CEM): > 100 µM (inactive) | GI50 (COLO 205): > 100 µM (inactive) | GI50 (DU-145): > 100 µM (inactive) | GI50 (EKVX): > 100 µM (inactive) | GI50 (HCC 2998): > 100 µM (inactive) | GI50 (HCT-116): > 100 µM (inactive) | GI50 (HCT-15): 67.3 µM | GI50 (HL-60): 42.7 µM (inactive) | GI50 (HOP-62): > 100 µM (inactive) | GI50 (HOP-92): 78.5 µM (inactive) | GI50 (HT-29): > 100 µM (inactive) | GI50 (Hs-578T): 85.1 µM (inactive) | GI50 (IGROV-1): > 100 µM (inactive) | GI50 (K562): 92.7 µM (inactive) | GI50 (KM12): 41.8 µM (inactive) | GI50 (LOX IMVI): > 100 µM (inactive) | GI50 (M14): > 100 µM (inactive) | GI50 (MCF7): 63.4 µM (inactive) | GI50 (MDA-MB-231): 98.4 µM (inactive) | GI50 (MDA-MB-435): > 100 µM (inactive) | GI50 (MOLT-4): 49.3 µM (inactive) | GI50 (Malme-3M): > 100 µM (inactive) | GI50 (NCI-H226): 49.8 µM (inactive) | GI50 (NCI-H23): > 100 µM (inactive) | GI50 (NCI-H460): > 100 µM (inactive) | GI50 (NCI-H522): > 100 µM (inactive) | GI50 (NCI/ADR-RES): 40.5 µM (inactive) | GI50 (OVCAR-3): > 100 µM (inactive) | GI50 (OVCAR-4): > 100 µM (inactive) | GI50 (OVCAR-5): > 100 µM (inactive) | GI50 (OVCAR-8): > 100 µM (inactive) | GI50 (PC-3): > 100 µM (inactive) | GI50 (RPMI-8226): 19.5 µM (inactive) | GI50 (RXF 393): > 100 µM (inactive) | GI50 (SF-268): > 100 µM (inactive) | GI50 (SF-295): 40.8 µM (inactive) | GI50 (SF-539): > 100 µM (inactive) | GI50 (SK-MEL-28): > 100 µM (inactive) | GI50 (SK-MEL-5): 94.4 µM (inactive) | GI50 (SK-OV-3): > 100 µM (inactive) | GI50 (SN12C): > 100 µM (inactive) | GI50 (SNB-19): > 100 µM (inactive) | GI50 (SR): 36.9 µM (inactive) | GI50 (SW-620): > 100 µM (inactive) | GI50 (T47D): > 100 µM (inactive) | GI50 (TK-10): 84.9 µM (inactive) | GI50 (U-251): 40.2 µM (inactive) | GI50 (UACC-257): 57.8 µM (inactive) | GI50 (UACC-62): 32.1 µM (inactive) | GI50 (UO-31): 51.3 µM (inactive)

COc1ccc2c(c1)c1c(n2CCN2CCCCC2)-c2ccccc2CC1
GI50 (786-0): 18.6 µM (inactive) | GI50 (A549): 16.4 µM (inactive) | GI50 (ACHN): 17.2 µM (inactive) | GI50 (BT-549): 23.1 µM (inactive) | GI50 (CAKI-1): 11.8 µM (inactive) | GI50 (CCRF-CEM): 14 µM (inactive) | GI50 (COLO 205): 13.6 µM (inactive) | GI50 (DU-145): 32.1 µM (inactive) | GI50 (EKVX): 17.9 µM (inactive) | GI50 (HCC 2998): 6.78 µM (inactive) | GI50 (HCT-116): 16.2 µM (inactive) | GI50 (HCT-15): 11.5 µM | GI50 (HOP-62): 18.6 µM (inactive) | GI50 (HOP-92): 15.8 µM (inactive) | GI50 (HT-29): 4.48 µM (inactive) | GI50 (Hs-578T): 13.5 µM (inactive) | GI50 (IGROV-1): 11.6 µM (inactive) | GI50 (K562): 8.99 µM (inactive) | GI50 (KM12): 14 µM (inactive) | GI50 (LOX IMVI): 21.3 µM (inactive) | GI50 (M14): 14.7 µM (inactive) | GI50 (MCF7): 14.3 µM (inactive) | GI50 (MDA-MB-231): 16.4 µM (inactive) | GI50 (MDA-MB-435): 17.5 µM (inactive) | GI50 (MOLT-4): 14.6 µM (inactive) | GI50 (Malme-3M): 14.6 µM (inactive) | GI50 (NCI-H226): 5.2 µM (inactive) | GI50 (NCI-H23): 17.7 µM (inactive) | GI50 (NCI-H460): 14.5 µM (inactive) | GI50 (NCI-H522): 8.97 µM (inactive) | GI50 (NCI/ADR-RES): 16.7 µM (inactive) | GI50 (OVCAR-3): 18.3 µM (inactive) | GI50 (OVCAR-4): 16.6 µM (inactive) | GI50 (OVCAR-5): 16.9 µM (inactive) | GI50 (OVCAR-8): 14.9 µM (inactive) | GI50 (PC-3): 13.6 µM (inactive) | GI50 (RPMI-8226): 14.7 µM (inactive) | GI50 (SF-268): 13.8 µM (inactive) | GI50 (SF-295): 14.8 µM (inactive) | GI50 (SF-539): 13.6 µM (inactive) | GI50 (SK-MEL-28): 17.9 µM (inactive) | GI50 (SK-MEL-2): 15.2 µM (inactive) | GI50 (SK-MEL-5): 15.9 µM (inactive) | GI50 (SK-OV-3): 19.7 µM (inactive) | GI50 (SN12C): 16.9 µM (inactive) | GI50 (SNB-19): 16.6 µM (inactive) | GI50 (SNB-75): 14.6 µM (inactive) | GI50 (SR): 11.4 µM (inactive) | GI50 (SW-620): 17.4 µM (inactive) | GI50 (T47D): 15.1 µM (inactive) | GI50 (TK-10): 14 µM (inactive) | GI50 (U-251): 14.4 µM (inactive) | GI50 (UACC-257): 17.9 µM (inactive) | GI50 (UO-31): 13.3 µM (inactive)
